This note sets out measurements from US7442398B2, “Phytase produced from Citrobacter braakii” (Republic of National Fisheries Research and Development …, priority 2003, dated 2008).

For orientation: Km means the substrate concentration at which the rate is half of its maximum.

The target in data set [1] is T1, Citrobacter braakii YH-15 phytase, wild type, SEQ. ID. No 7 (N-terminal SEQ. ID. No 2) (Citrobacter braakii, UniProt Q2VY22).
T1 construct: signal peptide removed
As to the kind of experiment: Enzyme activity of YH-15 phytase according to metal ions and inhibitors. The format is biochemical. The note with it: for effect of inhibitor on enzyme activity: concentration not given, reagents involved in disulfate bond. Here is the method: (§1) The present inventors measured the activity of phytase produced by the 5 strains above (Table 1). Inorganic phosphorus quantitative method of Fiske, et al. was used for measuring the activity of phytase in culture solution and in cell precipitate. Particularly, 400 μl of substrate solution (2 mM sodium phytate in 0.1 M sodium acetate buffer, pH 5.0) was added to 100 μl of enzyme solution diluted by required dilution ratio, which was reacted at 37° C. for 30 minutes. Then, 500 μl of 5% TCA solution was added thereto, which was just left at 0° C. for 10 minutes to stop the reaction. As for a control (blank), TCA (trichloroacetic acid) solution was added to enzyme solution to inactivate the enzyme and then substrate solution was added thereto, which was left for a while. 4 ml of reagent A (1:1:1:2 ratio of 6 N H2SO4/2.5% ammonium molybdate/10% ascorbic acid/H2O) was added, followed by reaction at 37° C. for 30 minutes. Then, activities in enzyme solution and in a control were measured at 820 nm. 1 unit of the enzyme was determined to be the enzyme amount releasing 1 μmole of phosphate for 1 minute.
(§2) The present inventors investigated the effect of metal ions and inhibitors on the enzyme activity of phytase of the present invention.

The subject of data set [2] is YH-15 phytase. The experiment in a line: Substrate specificity of phytase. The format is biochemical, Citrobacter braakii YH-15. To be noted: for Relative activity (%): substrate, phytate = 100. An excerpt:
(§3) Substrate specificity of phytase to various phosphate ester compounds was investigated.

Data set [3] concerns YH-15 phytase. As to the kind of experiment: Enzyme activity of phytase according to metal ions and inhibitors. The format is biochemical, Citrobacter braakii YH-15. To be noted: for inhibition of enzyme activity by metal ions: concentration of 10 mM; for enzyme activity after being left with denaturant: 37° C. for 2 hours, 8 M urea or 0.0024% SDS.
From the text: as §2

Data set [4] concerns the target T1, Citrobacter braakii YH-15 phytase, wild type, SEQ. ID. No 7 (N-terminal SEQ. ID. No 2). The experiment in a line: Substrate kinetics of purified YH-15 phytase (phosphate release from phytate). The format is biochemical. To be noted: substrate phytate (sodium phytate). Here is the method: as §1
(§4) The enzyme activity of phytase included in each sample prepared from each purification stage of the above Example <3-2> was investigated (Table 3). Protein content was quantified by BCA protein quantification kit provided by Sigma, co. At that time, BSA (bovine serum albumin) was used as a standard protein. Specific activity of the purified phytase to phytate was 3,457 units/mg, recovery rate was 28%, and the final phytase was purified by 12,950 fold (FIG. 2).
as §3

The subject of data set [5] is O=P(O)(O)O[C@H]1[C@H](OP(=O)(O)O)[C@@H](OP(=O)(O)O)[C@H](OP(=O)(O)O)[C@@H](OP(=O)(O)O)[C@H]1OP(=O)(O)O. Described as above. The format is biochemical, Citrobacter braakii YH-15. To be noted: other: substrate phytate (sodium phytate); pH 5.0; 37.0 °C. Here is the method:
as §1, §4, §3

The subject of the next data set is proteases. As to the kind of experiment: Effect of proteases on the enzyme activity of phytase. The format is biochemical. Here is the method:
The present inventors investigated the effect of proteases on the enzyme activity of phytase. Particularly, phytase was left at 37° C. for 2 hours with pepsin and trypsin, resulting in no changes in the enzyme activity. But, as papain, elastase and pancreatin were added, 70˜85% of the enzyme activity remained.

The nature of data set [6]: Specific activity and kinetics of purified phytase to phytate. The format is biochemical, Citrobacter braakii YH-15. Here is the method: as §1
The enzyme activity of phytase included in each sample prepared from each purification stage of the above Example <3-2> was investigated (Table 3). Protein content was quantified by BCA protein quantification kit provided by Sigma, co. […]

A short description of data set [7]: Enzyme activity of phytase according to temperature and pH. The format is biochemical, Citrobacter braakii YH-15. Here is the method:
The present invention investigated an enzyme activity of phytase, according to temperature and pH, purified through chromatography using Mono S column.
When the enzyme was left at 55° C. for 10 minutes, 75% of the activity was still remained.
50% of the enzyme activity was still maintained at pH 2.5. […] But, as the protein was left under pH 3.0 for 4 hours, the enzyme activity was almost lost. From temperature and pH test with the protein, phytase of the present invention was believed to be very suitable for being used as a feed additive for monogastric animals.

In the case of `OCCS` [2-mercaptoethanol], in data set [1], the “effect of inhibitor on enzyme activity” value is “hardly affected”.

On to `Nc1ncnc2c1ncn2[C@@H]1O[C@H](COP(=O)(O)OP(=O)(O)O)[C@@H](O)[C@H]1O` [ADP], for which the “Relative activity (%)” value with YH-15 phytase [2] is 1.04%.

Consider `Nc1ncnc2c1ncn2[C@@H]1O[C@H](COP(=O)(O)OP(=O)(O)OP(=O)(O)O)[C@@H](O)[C@H]1O` [ATP], for which the “Relative activity (%)” value with YH-15 phytase [2] was found to be 1.86%.

Turning to `[Ca+2].[Cl-].[Cl-]` [CaCl2], the “Relative activity (%)” value in the data set with YH-15 phytase [3] (metal ion or inhibitor 6 mM) is listed as 87%.

With `[Cl][Cd][Cl]` [CdCl2], the “Relative activity (%)” value in the data set with YH-15 phytase [3] (metal ion or inhibitor 6 mM) came to 101%.

With `O=S(=O)([O-])[O-].[Cu+2]` [CuSO4], the “inhibition of enzyme activity by metal ions” value (from here on “inhibition … by metal ions”) in the data set with YH-15 phytase [3] is listed as “strongly inhibited”. Moreover, the “Relative activity (%)” value with YH-15 phytase [3] (metal ion or inhibitor 6 mM) amounted to 38%.

For `O=C(O)CN(CCN(CC(=O)O)CC(=O)O)CC(=O)O` [EDTA], the activity at 6000 µM in data set [1] (read-out: Relative activity (%)) amounted to 98%.

Regarding `[Cl][Fe]([Cl])[Cl]` [FeCl3], the “inhibition … by metal ions” value in the data set with YH-15 phytase [3] is given as “strongly inhibited”. For the same molecule, the “Relative activity (%)” value with YH-15 phytase [3] (metal ion or inhibitor 6 mM) worked out at 19%.

Consider `O=C(CO)[C@@H](O)[C@H](O)[C@H](O)COP(=O)(O)O` [Fructose-6-phosphate], for which the “Relative activity (%)” value in the data set on YH-15 phytase [2] came out at 0.75%.

Turning to `O=P(O)(O)O[C@H]1O[C@H](CO)[C@@H](O)[C@H](O)[C@H]1O` [Glucose-1-phosphate], the “Relative activity (%)” value with YH-15 phytase [2] stood at 0.42%.

As to `O=C[C@H](O)[C@@H](O)[C@H](O)[C@H](O)COP(=O)(O)O` [Glucose-6-phosphate], the “Relative activity (%)” value in the data set on YH-15 phytase [2] was 0.33%.

`O=P(O)(O)OCC(O)CO` (centres unmarked) [Glycerophosphate]: the “Relative activity (%)” value in the data set with YH-15 phytase [2] is reported as 0.57%.

For `[Cl-].[K+]` [KCl], the “Relative activity (%)” value in the data set on YH-15 phytase [3] (metal ion or inhibitor 6 mM) was 95%.

As for `O=C[C@@H](O)[C@@H](O)[C@H](O)[C@H](O)COP(=O)(O)O` [Mannose-6-phosphate], the “Relative activity (%)” value in the data set with YH-15 phytase [2] is recorded as 0.01%.

Regarding `[Cl-].[Cl-].[Mg+2]` [MgCl2], the “Relative activity (%)” value in the data set with YH-15 phytase [3] (metal ion or inhibitor 6 mM) is reported as 71%.

As for `[Cl][Mn][Cl]` [MnCl2], in the data set with YH-15 phytase [3] (metal ion or inhibitor 6 mM), the “Relative activity (%)” value stood at 92%.

`[Cl-].[Na+]` [NaCl]: the “inhibition of enzyme activity” value in the data set on YH-15 phytase [3] (concentration of 1 M) is listed as 50%. For the same molecule, the results for the “Relative activity (%)” value with YH-15 phytase [3] (metal ion or inhibitor 6 mM) and in the data set on YH-15 phytase [3] (metal ion or inhibitor 1000 mM) were 102% and 54%, respectively.

With `O=S(=O)([O-])[O-].[Ni+2]` [NiSO4], the “Relative activity (%)” value with YH-15 phytase [3] (metal ion or inhibitor 6 mM) worked out at 88%.

With `O=P(O)(O)O[C@H]1[C@H](OP(=O)(O)O)[C@@H](OP(=O)(O)O)[C@H](OP(=O)(O)O)[C@@H](OP(=O)(O)O)[C@H]1OP(=O)(O)O` [Phytate, myo-inositol 1,2,3,4,5,6 hexakis dihydrogen phosphate], in the data set on YH-15 phytase [2], the “ability of phytase to decompose the substrate” value is on record as “strong ability to decompose” and the “Relative activity (%)” value was found to be 100%.

Take `CCCCCCCCCCCCOS(=O)(=O)[O-].[Na+]` [SDS]: the “enzyme activity after being left with denaturant” value with YH-15 phytase [3] is reported as “almost lost”.

In the case of `O=P([O-])([O-])OP(=O)([O-])[O-].[Na+].[Na+].[Na+].[Na+]` [Tetrasodium pyrophosphate], the “Relative activity (%)” value in the data set on YH-15 phytase [2] came out at 5.95%.

In the case of `O=S(=O)([O-])[O-].[Zn+2]` [ZnSO4], in the data set on YH-15 phytase [3], the “inhibition … by metal ions” value was “strongly inhibited”. The “Relative activity (%)” value in the data set on YH-15 phytase [3] (metal ion or inhibitor 8 mM) came out at 33%.

As to `OC(CS)C(O)CS` (centres unmarked) [dithothreitol], in data set [1], the “effect of inhibitor on enzyme activity” value is “hardly affected”.

Regarding `O=[N+]([O-])c1ccc(OP(=O)(O)O)cc1` [p-nitrophenyl phosphate], in the data set on YH-15 phytase [2], the “Relative activity (%)” value amounted to 11.27%.

On to `O=P(O)(O)O[C@H]1[C@H](OP(=O)(O)O)[C@@H](OP(=O)(O)O)[C@H](OP(=O)(O)O)[C@@H](OP(=O)(O)O)[C@H]1OP(=O)(O)O` [phytate, myo-inositol 1,2,3,4,5,6 hexakis dihydrogen phosphate], for which the Vmax in data set [4] was 6,027 U/mg.

Consider `NC(N)=O` [urea], for which, in data set [1] (8 M, 37° C., 2 hours), the “enzyme activity after incubation with inhibitor” value is given as “almost lost”. Also, the “enzyme activity after being left with denaturant” value in the data set with YH-15 phytase [3] was “almost lost”.

As for “Citrobacter braakii YH-15 phytase, wild type, SEQ. ID. No 7 (N-terminal SEQ. ID. No 2) (Citrobacter braakii)”, in data set [5], the Km came out at 460 µM and the Vmax is 6,027 U/mg.

B1: YH-15 phytase: novel phytase enzyme of about 47 kDa produced by Citrobacter braakii YH-15, SEQ. ID. No 7 (protein)
chain: MSTFIIRLLIFSLLCGSFSIHAEEQNGMKLERVVIVSRHGVRAPTKFTPIMKDVTPDQWPQWDVPLGWLTPRGGELVSELGQYQRLWFTSKGLLNNQTCPSPGQVAVIADTDQRTRKTGEAFLAGLAPKCQIQVHYQKDEEKNDPLFNPVKMGKCSFNTLKVKNAILERAGGNIELYTQRYQSSFRTLENVLNFSQSETCKTTEKSTKCTLPEALPSEFKVTPDNVSLPGAWSLSSTLTEIFLLQEAQGMPQVAWGRITGEKEWRDLLSLHNAQFDLLQRTPEVARSRATPLLDMIDTALLTNGTTENRYGIKLPVSLLFIAGHDTNLANLSGALDLKWSLPGQPDNTPPGGELVFEKWKRTSDNTDWVQVSFVYQTLRDMRDIQPLSLEKPAGKVDLKLIACEEKNSQGMCSLKSFSRLIKEIRVPECAVTE
modifications: Citrobacter braakii YH-15; PEPTIDE (1)..(433) phytase
Take B1: the “enzyme activity after pepsin” value with proteases (37° C. for 2 hours with pepsin) is reported as “no changes”. In addition, the “enzyme activity after trypsin” value in the data set on proteases (37° C. for 2 hours with trypsin) is “no changes”. In addition, the “enzyme activity remained after elastase” value in the data set on proteases (elastase added) is recorded as 70˜85%. In addition, the “enzyme activity remained after pancreatin” value in the data set with proteases (pancreatin added) was 70˜85%. Moreover, the “enzyme activity remained after papain” value with proteases (papain added) was 70˜85%. The “Specific activity of the purified phytase to phytate” value in data set [6] (final purified phytase) is given as 3,457 units/mg. In addition, the Specific activity in data set [6] (purification stage Mono SHR 5/5 (final)) was 3,457 U/mg. In addition, in data set [7], the “pH of highest activity” value came out at 4.0 and the “temperature of highest activity” value turned out to be 50 °C. The “activity on storage at pH 3.0-4.5” value in data set [7] (37° C., pH 3.0-4.5, 7 days) is given as “very stably maintained”. The “activity remained at pH 7.0” value in data set [7] (37° C., pH 7.0, 7 days) was 50%. In data set [7] (50° C. for 1 hour), the “activity after holding at 50° C.” value is listed as “stably maintained”. Besides, in data set [7] (left at 55° C. for 10 minutes), the “activity remained after heat” value came to 75%. In addition, the “enzyme activity maintained at pH 2.5” value in data set [7] (pH 2.5) came to 50%. Moreover, the “activity after being left under pH 3.0” value in data set [7] (under pH 3.0 for 4 hours) is recorded as “almost lost”.
